{"source": "patent US11464859B2", "about": "(priority 2005, dated 2022)", "key": {"[1]": {"test_system": "acute promyelocytic leukaemia", "details": "cited from earlier work; for efficacy and side effects compared with intravenous arsenic trioxide: oral, pilot study, patients with acute promyelocytic leukaemia, preliminary results"}, "[2]": {"test_system": "many different cancer cell lines", "details": "cited from earlier work"}, "[3]": {"details": "cited from earlier work"}, "[4]": {"test_system": "telomeres of human cancer cells", "type": "cell-based", "details": "sodium salt"}, "[5]": {"test_system": "human tumour xenografts (renal cell carcinoma RXF 944LX, mammary cancer MAXF 401)"}, "telomerase": {"biological_target": "telomerase (Homo sapiens, UniProt O14746)", "sequence (O14746 whole entry)": "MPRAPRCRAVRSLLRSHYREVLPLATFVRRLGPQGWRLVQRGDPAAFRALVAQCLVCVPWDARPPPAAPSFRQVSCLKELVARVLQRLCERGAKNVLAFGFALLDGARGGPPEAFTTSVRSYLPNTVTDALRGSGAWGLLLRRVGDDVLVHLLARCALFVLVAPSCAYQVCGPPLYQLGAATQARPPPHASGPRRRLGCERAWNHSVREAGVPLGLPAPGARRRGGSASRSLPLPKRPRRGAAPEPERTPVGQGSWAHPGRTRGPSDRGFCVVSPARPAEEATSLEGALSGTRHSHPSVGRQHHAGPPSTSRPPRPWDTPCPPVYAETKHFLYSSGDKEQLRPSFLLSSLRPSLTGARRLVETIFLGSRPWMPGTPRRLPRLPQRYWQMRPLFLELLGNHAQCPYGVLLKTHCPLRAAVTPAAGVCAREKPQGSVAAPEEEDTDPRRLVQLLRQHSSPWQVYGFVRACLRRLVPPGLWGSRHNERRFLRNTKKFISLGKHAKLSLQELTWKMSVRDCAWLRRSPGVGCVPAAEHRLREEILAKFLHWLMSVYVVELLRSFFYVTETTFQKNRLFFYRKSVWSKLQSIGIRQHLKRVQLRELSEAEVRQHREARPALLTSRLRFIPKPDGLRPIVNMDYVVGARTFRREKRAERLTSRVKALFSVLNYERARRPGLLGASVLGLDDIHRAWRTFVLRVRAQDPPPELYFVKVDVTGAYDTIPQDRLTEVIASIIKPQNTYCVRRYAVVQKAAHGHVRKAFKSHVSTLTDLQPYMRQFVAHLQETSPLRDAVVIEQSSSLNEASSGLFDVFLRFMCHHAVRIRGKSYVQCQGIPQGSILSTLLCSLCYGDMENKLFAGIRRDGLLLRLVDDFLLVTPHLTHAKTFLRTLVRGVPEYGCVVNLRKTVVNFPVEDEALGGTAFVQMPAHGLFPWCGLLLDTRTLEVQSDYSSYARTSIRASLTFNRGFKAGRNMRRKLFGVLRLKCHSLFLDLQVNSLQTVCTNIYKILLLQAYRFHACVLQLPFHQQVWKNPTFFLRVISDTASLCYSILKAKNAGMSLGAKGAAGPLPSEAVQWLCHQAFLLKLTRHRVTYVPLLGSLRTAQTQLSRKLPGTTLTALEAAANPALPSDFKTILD", "type": "biochemical", "details": "sodium salt"}, "[6]": {"test_system": "prostate and/or urogenital cancer and bone metastasis", "details": "human, in vivo"}, "[7]": {"test_system": "panel of 43 human tumour cell lines"}, "[8]": {"details": "in vivo"}, "[9]": {"details": "in vivo", "remark": "listed apart in the source"}, "[10]": {"details": "human, in vivo"}}, "note": "Entries after “also recorded” stand apart in the source; their conditions may differ.", "data": [{"compound": "S1[As]2S[As]3S[As]2S[As]13", "note": "[tetra-arsenic tetrasulphide]", "values": [{"measurement": "efficacy and side effects compared with intravenous arsenic trioxide", "setting": "[1]", "result": "The same was noted"}]}, {"compound": "arsenic trioxide", "values": [{"measurement": "effect on growth and apoptosis", "setting": "[2]", "result": "inhibits growth and promotes apoptosis"}, {"measurement": "incidence of the listed adverse events (fatigue, fever, oedema, chest pain, nausea, ECG abnormalities etc.)", "setting": "[3]; patients treated with arsenic trioxide", "result": "≥ 10 % of patients"}, {"measurement": "effect on QT interval", "setting": "[3]; patients", "result": "prolong the QT and QT interval corrected for rate (QTc)"}, {"measurement": "clinical response", "setting": "[1]; daily intravenous administration alone, newly diagnosed and relapsed acute promyelocytic leukaemia", "result": "complete responses in a large majority of patients"}, {"measurement": "efficacy and side effects compared with intravenous arsenic trioxide", "setting": "[1]", "result": "comparable"}]}, {"compound": "arsenous acid sodium salt", "values": [{"measurement": "effect on telomeres", "setting": "[4]", "result": "capable of shortening the telomeres of human cancer cells; also recorded: capable of shortening telomeres of human cancer cells, inducing cellular senescence and chromosomal abnormalities"}, {"measurement": "anti-tumour activity in a human tumour model in vivo", "setting": "[5]", "result": "showed anti-tumour activity"}, {"measurement": "activity in subcutaneously transplanted human tumour xenografts", "setting": "[5]; in vivo", "result": "borderline active in 2/7"}, {"measurement": "efficacy by schedule", "setting": "[5]; in vivo", "result": "better"}, {"measurement": "inhibition of telomerase activity", "setting": "telomerase", "result": "doesn't inhibit telomerase activity; also recorded: does not directly inhibit the telomerase activity"}, {"measurement": "PSA levels and tumour size, overall", "setting": "[6]", "result": "a reduction in their PSA levels and tumour size"}, {"measurement": "change in PSA levels, judgement", "setting": "[6]", "result": "clinically significant change"}, {"measurement": "clinical response, overall", "setting": "[6]", "result": "Most patients showed at least a partial response"}, {"measurement": "decrease in tumour activity", "setting": "[6]", "result": 99.15, "unit": "%"}, {"measurement": "further reduction in tumour activity", "setting": "[6]", "result": 67.56, "unit": "%"}, {"measurement": "further tumour activity reduction", "setting": "[6]", "result": 40.32, "unit": "%"}, {"measurement": "quality of life", "setting": "[6]", "result": "strongly ameliorated"}, {"measurement": "IC50", "setting": "[7]", "result": 600, "unit": "nM"}, {"measurement": "combination effect", "setting": "[7]", "result": "additive effects"}, {"measurement": "potency among three arsenic compounds", "setting": "[7]", "result": "most potent"}, {"measurement": "potency relative to arsenic trioxide", "setting": "[7]", "result": "at least 15 fold"}, {"measurement": "main target organs of toxicity", "setting": "[8]", "result": "bone marrow and lymphoid organs"}, {"measurement": "absorption", "setting": "[9]", "result": "rapidly absorbed"}, {"measurement": "persistence in plasma", "setting": "[9]", "result": "remained in the plasma for prolonged periods"}, {"measurement": "bioavailability", "setting": "[9]; po", "result": "approximately 100%"}, {"measurement": "change in ECG activity, audiometry or neurological examinations", "setting": "[10]", "result": "no change"}, {"measurement": "disturbance of patients' well-being feeling", "setting": "[10]", "result": "did not cause any disturbance"}, {"measurement": "glucose levels", "setting": "[10]", "result": "always appeared elevated"}, {"measurement": "hemoglobin concentration at end", "setting": "[10]", "result": 11.1}, {"measurement": "hemoglobin concentration at start", "setting": "[10]", "result": 10.0}, {"measurement": "liver transaminases sGOT, sGPT and sGGT", "setting": "[10]", "result": "reversible increase"}, {"measurement": "sGGT elevation", "setting": "[10]", "result": "worsened"}, {"measurement": "sGGT elevation and thrombocytosis", "setting": "[10]", "result": "remained unchanged"}, {"measurement": "sGPT", "setting": "[10]", "result": "reversible and slight increase"}, {"measurement": "triglycerides and cholesterol level", "setting": "[10]", "result": "unchanged"}, {"measurement": "occurrence of the adverse events known for arsenic trioxide", "setting": "[10]; po", "result": "none of these adverse events have been observed"}]}]}
